According to patent US4175081A, “5-Substituted thiadiazole ureas” (priority 1977, dated 1979):

Columns and labels:
[1] = test system: Bean (BN); assay: Post-emergence herbicide test; assay type: in vivo, Phaseolus vulgaris var. Black Valentine; conditions: Phaseolus vulgaris, post-emergence, 336 h, two weeks after treatment
In short: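 Snapbean (Phaseolus vulgaris var. Black Valentine) was tested post-emergence. Four seeds were sown in 3' plastic pots of potting soil at a depth equal to the seed diameter, then sub-irrigated in greenhouse trays. Planting dates were staggered so plants were sprayed once primary leaves had expanded, with the growing point at the primary leaf nodes.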

[2] = test system: Johnson grass (JG); assay: Post-emergence herbicide test; assay type: in vivo, Sorgum helepense; conditions: Sorghum halepense, 336 h, two weeks after treatment
In short: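 Greenhouse pot-grown seedlings sprayed post-emergence at 8 lbs compound per acre (some at 4 lbs/acre) in 38 gallons per acre spray volume. Sub-irrigated thereafter. Injury/control rated visually two weeks after treatment.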

[3] = test system: Barnyard grass (BG); assay: Post-emergence herbicide test; assay type: in vivo; conditions: Echinochloa crus-galli, 336 h, two weeks after treatment
In short: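 Greenhouse pot-grown barnyard grass seedlings sprayed post-emergence at 8 lbs active compound per acre (some at 4 lbs/acre) in 38 gallons per acre, then sub-irrigated. Injury or control rated visually two weeks after treatment.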

[4] = test system: Turnip (TP); assay: Post-emergence herbicide test; assay type: in vivo, Brassica sp.; conditions: Brassica rapa, post-emergence, 336 h, two weeks after treatment
In short: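 A greenhouse post-emergence herbicide test on turnip. Seeds were sown on the surface of potting soil in 3' plastic pots, lightly covered with screened soil and watered from below. Planting was timed so seedlings had 1 or 2 true leaves above the cotyledons at spraying, done in a hood with a fixed nozzle. Control or injury was scored by eye after two weeks.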

[5] = test system: Cotton (CT); assay: Post-emergence herbicide test; assay type: in vivo, Gossypium hirsutum var. DPL smooth leaf; conditions: Gossypium hirsutum, post-emergence, 336 h, two weeks after treatment
In short: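 Cotton (Gossypium hirsutum var. DPL smooth leaf) was grown in 3' plastic pots of potting soil, four seeds per pot, planted at a depth equal to the seed diameter and watered by sub-irrigation. At the stage of expanded cotyledons with the first true leaf 1' long, plants were sprayed post-emergence in a hood with a fixed nozzle over a moving belt. Percent control was rated visually two weeks later.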

[6] = test system: Yellow foxtail grass (YF); assay: Post-emergence herbicide test; assay type: in vivo, Setaria glauca; conditions: Setaria, 336 h, two weeks after treatment
In short: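 Potted seedlings grown in greenhouse, planting staggered to reach the target stage together, then sprayed post-emergence at 8 lbs actual compound/acre in 38 gallons/acre (4 lbs/acre formulations also prepared). Sub-irrigated afterwards. Injury or control rated visually two weeks after treatment.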

[7] = test system: Cotton (CT); assay: Pre-emergence herbicide test; assay type: in vivo, Gossypium hirsutum var. DPL smooth leaf; conditions: Gossypium hirsutum, 336 h, two weeks after treatment
In short: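 Crop and weed species seeded one day before treatment, then sprayed pre-emergence at 8 lbs actual compound per acre (also 4 lbs/acre formulations) in 38 gallons per acre. Pots kept in greenhouse with sub-irrigation only; injury or control visually rated two weeks after treatment.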

[8] = test system: Barnyard grass (BG); assay: Pre-emergence herbicide test; assay type: in vivo; conditions: Echinochloa crus-galli, 336 h, two weeks after treatment
In short: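 Barnyard grass surface-seeded in potting soil and sprayed pre-emergence one day after seeding, at 8 or 4 lb compound/acre in 38 gal/acre spray volume. Pots kept in greenhouse with sub-irrigation only; injury or control rated visually two weeks after treatment.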

[9] = test system: Yellow foxtail grass (YF); assay: Pre-emergence herbicide test; assay type: in vivo, Setaria glauca; conditions: Setaria, 336 h, two weeks after treatment
In short: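 Seeds surface-sown in potting soil one day before spraying; compounds applied pre-emergence at 8 or 4 lbs/acre in 38 gallons/acre spray. Pots held in greenhouse with sub-irrigation only. Injury or control rated visually two weeks after treatment.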

[10] = test system: Bean (BN); assay: Pre-emergence herbicide test; assay type: in vivo, Phaseolus vulgaris var. Black Valentine; conditions: Phaseolus vulgaris, 336 h, two weeks after treatment
In short: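 Black Valentine bean was seeded in potting soil one day before spraying. Compound was applied pre-emergence at 8 lbs/acre (also 4 lbs/acre) in 38 gallons per acre. Plants were sub-irrigated and injury or control was rated visually after two weeks.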

[11] = test system: Crabgrass (CG); assay: Pre-emergence herbicide test; assay type: in vivo, Digitaria sanquinalis; conditions: Digitaria sanguinalis, pre-emergence, 336 h, two weeks after treatment
In short: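 Crabgrass (Digitaria sanquinalis) was surface seeded in 3' plastic pots of potting soil, covered with screened soil, and watered by sub-irrigation in greenhouse trays. Pots were seeded one day before spraying in a hood with a moving belt and fixed nozzle. Plants stayed in the greenhouse on sub-irrigation, and pre-emergence control was rated visually two weeks after treatment.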

[12] = test system: Johnson grass (JG); assay: Pre-emergence herbicide test; assay type: in vivo, Sorgum helepense; conditions: Sorghum halepense, 336 h, two weeks after treatment
In short: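 Pots seeded one day before spraying; compound applied pre-emergence at 8 lbs/acre (or 4 lbs/acre) in 38 gallons/acre spray volume. Sub-irrigated in greenhouse; injury/control rated visually two weeks after treatment.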

[13] = test system: Amaranth pigweed (PW); assay: Post-emergence herbicide test; assay type: in vivo, Amaranthus retroflexus; conditions: 336 h, two weeks after treatment
In short: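 Pot-grown pigweed was sprayed post-emergence at the 1–2 true-leaf stage with compound at rates equivalent to 8 lbs per acre (formulations also prepared for 4 lbs/acre) in 38 gallons per acre, using a hood with fixed nozzle. Plants were sub-irrigated in the greenhouse, and injury or control was rated visually two weeks after treatment.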

[14] = test system: Corn (CN); assay: Pre-emergence herbicide test; assay type: in vivo; conditions: Zea mays, 336 h, two weeks after treatment
In short: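 Four corn seeds per pot, sown at seed-diameter depth one day before spraying, got soil surface treatment at 8 lbs/acre (4 lbs/acre formulations also prepared) in 38 gallons/acre. Pots were greenhouse-held with sub-irrigation only. Injury or control was scored visually two weeks after treatment.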

[15] = test system: Amaranth pigweed (PW); assay: Pre-emergence herbicide test; assay type: in vivo, Amaranthus retroflexus; conditions: 336 h, two weeks after treatment
In short: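 Pigweed was surface-seeded in potted soil one day before spraying at 8 lbs compound per acre, or 4 lbs/acre, in 38 gallons per acre. Pots were kept in the greenhouse with sub-irrigation only; injury or control was rated visually two weeks after treatment.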

[16] = test system: Corn (CN); assay: Post-emergence herbicide test; assay type: in vivo; conditions: Zea mays, 336 h, two weeks after treatment
In short: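 Greenhouse seedlings grown in potting soil and sprayed post-emergence at 8 lbs compound/acre (formulations also made for 4 lbs/acre) in 38 gallons/acre spray volume. Watering by sub-irrigation only. Injury or control rated visually two weeks after treatment.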

[17] = test system: Turnip (TP); assay: Pre-emergence herbicide test; assay type: in vivo, Brassica sp.; conditions: Brassica rapa, pre-emergence, 336 h, two weeks after treatment
In short: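 Turnip (Brassica sp.) seeds were surface sown in 3' plastic pots of potting soil, covered with a thin layer of screened soil, and sub-irrigated in greenhouse trays. Pots were seeded one day ahead of treatment, sprayed pre-emergence under a hood with a fixed nozzle and moving belt, then kept in the greenhouse.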

[18] = test system: Crabgrass (CG); assay: Post-emergence herbicide test; assay type: in vivo, Digitaria sanquinalis; conditions: Digitaria sanguinalis, post-emergence, 336 h, two weeks after treatment
In short: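 Crabgrass (Digitaria sanquinalis) was surface seeded individually in 3' plastic pots of potting soil, covered with screened soil, and watered by sub-irrigation in greenhouse trays. Planting was staggered so seedlings reached the target stage together. Post-emergence sprays were applied in a hood with a removable belt and fixed nozzle, and control was visually rated two weeks after treatment.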

SMILES: CNC(=O)Nc1nnc(S(C)(=O)=O)s1 [Example 33]
- pest or weed control at 2241.7 g/ha ([1]; 2 lb/acre): 100%
- pest or weed control at 4483.4 g/ha ([1]; 4 lb/acre): 100%
- pest or weed control at 8966.8 g/ha ([1]; 8 lb/acre): 100%
- pest or weed control ([2]; 2 lb/acre): 80%
- pest or weed control at 4483.4 g/ha ([2]; 4 lb/acre): 50%
- pest or weed control at 8966.8 g/ha ([2]; 8 lb/acre): 40%
- pest or weed control at 2241.7 g/ha ([3]; 2 lb/acre): 70%
- pest or weed control at 4483.4 g/ha ([3]; 4 lb/acre): 70%
- pest or weed control at 8966.8 g/ha ([3]; 8 lb/acre): 100%
- pest or weed control at 2241.7 g/ha ([4]; 2 lb/acre): 90%
- pest or weed control at 4483.4 g/ha ([4]; 4 lb/acre): 80%
- pest or weed control at 8966.8 g/ha ([4]; 8 lb/acre): 100%
- pest or weed control at 2241.7 g/ha ([5]; 2 lb/acre): 40%
- pest or weed control at 4483.4 g/ha ([5]; 4 lb/acre): 100%
- pest or weed control at 8966.8 g/ha ([5]; 8 lb/acre): 100%
- pest or weed control ([6]; 2 lb/acre): 70%
- pest or weed control at 4483.4 g/ha ([6]; 4 lb/acre): 100%
- pest or weed control at 8966.8 g/ha ([6]; 8 lb/acre): 90%
- pest or weed control at 2241.7 g/ha ([7]; 2 lb/acre): 40%
- pest or weed control at 4483.4 g/ha ([7]; 4 lb/acre): 50%
- pest or weed control at 8966.8 g/ha ([7]; 8 lb/acre): 50%
- pest or weed control at 2241.7 g/ha ([8]; 2 lb/acre): 70%
- pest or weed control at 4483.4 g/ha ([8]; 4 lb/acre): 90%
- pest or weed control at 8966.8 g/ha ([8]; 8 lb/acre): 80%
- pest or weed control at 2241.7 g/ha ([9]; 2 lb/acre): 70%
- pest or weed control at 4483.4 g/ha ([9]; 4 lb/acre): 90%
- pest or weed control at 8966.8 g/ha ([9]; 8 lb/acre): 80%
- pest or weed control at 2241.7 g/ha ([10]; 2 lb/acre): 100%
- pest or weed control at 4483.4 g/ha ([10]; 4 lb/acre): 90%
- pest or weed control at 8966.8 g/ha ([10]; 8 lb/acre): 90%
- pest or weed control ([11]; 2 lb/acre): 90%
- pest or weed control at 4483.4 g/ha ([11]; 4 lb/acre): 90%
- pest or weed control at 8966.8 g/ha ([11]; 8 lb/acre): 90%
- pest or weed control at 2241.7 g/ha ([12]; 2 lb/acre): 80%
- pest or weed control at 4483.4 g/ha ([12]; 4 lb/acre): 60%
- pest or weed control at 8966.8 g/ha ([12]; 8 lb/acre): 70%
- pest or weed control at 2241.7 g/ha ([13]; 2 lb/acre): 50%
- pest or weed control at 4483.4 g/ha ([13]; 4 lb/acre): 100%
- pest or weed control at 8966.8 g/ha ([13]; 8 lb/acre): 100%
- pest or weed control at 2241.7 g/ha ([14]; 2 lb/acre): 20%
- pest or weed control at 4483.4 g/ha ([14]; 4 lb/acre): 20%
- pest or weed control at 8966.8 g/ha ([14]; 8 lb/acre): 70%
- pest or weed control at 2241.7 g/ha ([15]; 2 lb/acre): 50%
- pest or weed control at 4483.4 g/ha ([15]; 4 lb/acre): 60%
- pest or weed control at 8966.8 g/ha ([15]; 8 lb/acre): 70%
- pest or weed control ([16]; 2 lb/acre): 20%
- pest or weed control at 4483.4 g/ha ([16]; 4 lb/acre): 10%
- pest or weed control at 8966.8 g/ha ([16]; 8 lb/acre): 100%
- pest or weed control at 2241.7 g/ha ([17]; 2 lb/acre): 90%
- pest or weed control at 4483.4 g/ha ([17]; 4 lb/acre): 100%
- pest or weed control at 8966.8 g/ha ([17]; 8 lb/acre): 100%
- pest or weed control ([18]; 2 lb/acre): 90%
- pest or weed control at 4483.4 g/ha ([18]; 4 lb/acre): 60%
- pest or weed control at 8966.8 g/ha ([18]; 8 lb/acre): 90%
